Results published in patent US20120076781A1, “METHODS OF TREATING CANCERS WITH HER3 ANTISENSE OLIGONUCLEOTIDES” (ENZON PHARMACEUTICALS, INC., priority 2009, published 2012).
In the oligonucleotide strings, read from the 5' end, every base follows the letter of its sugar. An asterisk marks phosphorothioate; unmarked linkages are phosphodiester. Other units and linkages are bracketed, terminal groups are in braces. A string of capitals states the bases alone. l = locked nucleic acid (LNA); [5mC] = 5-methylcytosine; d = 2'-deoxy (DNA)

Assays:
Type in all cases: cell-based
Details in all cases: 25 nM
human HER2 mRNA = test: Down-regulation of HER2 mRNA in transfected 15PC3 cells, real-time PCR
Method: (§1) 15PC3: The human prostate cancer cell line 15PC3 was cultured in DMEM (Sigma)+10% fetal bovine serum (FBS)+2 mM Glutamax I+gentamicin (25 μg/ml).
(§2) The cells were treated with oligonucleotides using the cationic liposome formulation LipofectAMINE 2000 (Gibco) as transfection vehicle. Cells were seeded in 6-well cell culture plates (NUNC) and treated when 80-90% confluent. Oligomer concentrations ranged from 1 nM to 25 nM final concentration. Formulation of oligomer-lipid complexes was carried out essentially as described by the manufacturer using serum-free OptiMEM (Gibco) and a final lipid concentration of 5 μg/mL LipofectAMINE 2000. Cells were incubated at 37° C. for 4 hours and treatment was stopped by removal of oligomer-containing culture medium. Cells were washed and serum-containing medium was added. After oligomer treatment, cells were allowed to recover for 20 hours before they were harvested for RNA analysis.
(§3) Total RNA was extracted from cells transfected as described above and using the Qiagen RNeasy kit (Qiagen cat. no. 74104) according to the manufacturer's instructions. First strand synthesis was performed using Reverse Transcriptase reagents from Ambion according to the manufacturer's instructions.
(§4) For each sample 0.5 μg total RNA was adjusted to (10.8 μl) with RNase free H2O and mixed with 2 μl random decamers (50 μM) and 4 μl dNTP mix (2.5 mM each dNTP) and heated to 70° C. for 3 min after which the samples were rapidly cooled on ice. After cooling the samples on ice, 2 μl 10× Buffer RT, 1 μl MMLV Reverse Transcriptase (100 U/μl) and 0.25 μl RNase inhibitor (10 U/μl) was added to each sample, followed by incubation at 42° C. for 60 min, heat inactivation of the enzyme at 95° C. for 10 min, and then cooling the sample to 4° C.
(§5) The sample content of human HER3, EGFR and HER2 mRNA was quantified using the human HER3, EGFR and HER2 ABI Prism Pre-Developed TaqMan Assay Reagents (Applied Biosystems cat. no. Hs00951444_ml (HER3), Hs00193306_ml (EGFR) and Hs00170433_ml (HER2) according to the manufacturer's instructions.
(§6) Glyceraldehyde-3-phosphate dehydrogenase (GAPDH) mRNA quantity was used as an endogenous control for normalizing any variance in sample preparation. The sample content of human GAPDH mRNA was quantified using the human GAPDH ABI Prism Pre-Developed TaqMan Assay Reagent (Applied Biosystems cat. no. 4310884E) according to the manufacturer's instructions.
(§7) The cDNA from the first strand synthesis performed as described in Example 5 was diluted 2-20 times, and analyzed by real time quantitative PCR using Taqman 7500 FAST or 7900 FAST from Applied Biosystems. The primers and probe were mixed with 2× Taqman Fast Universal PCR master mix (2×) (Applied Biosystems Cat. #4364103) and added to 4 μl cDNA to a final volume of 10 μl. Each sample was analysed in duplicate. Assaying 2-fold dilutions of a cDNA that had been prepared on material purified from a cell line expressing the RNA of interest generated standard curves for the assays. Sterile H2O was used instead of cDNA for the no-template control. PCR program: 95° C. for 30 seconds, followed by 40 cycles of 95° C., 3 seconds, 60° C., 20-30 seconds. Relative quantities of target mRNA sequence were determined from the calculated Threshold cycle using the Applied Biosystems Fast System SDS Software Version 1.3.1.21. or SDS Software Version 2.3.
(§8) Oligonucleotides presented in Table 4 were evaluated for their potential to down-regulate HER3, EGFR and HER2 mRNA at concentrations of 1, 5 and 25 nM in 15PC3 cells (or HUH-7 as indicated by *) (see FIGS. 2, 3, 4 and 5). SEQ ID NOs: 235 and 236 were used as scrambled controls.
(§9) The data in Table 4 are presented as percentage down-regulation of mRNA relative to mock transfected cells at 25 nM. Lower-case letters represent DNA monomers, bold, upper-case letters represent β-D-oxy-LNA monomers. All cytosines in LNA monomers are 5-methylcytosines. Subscript “s” represents a phosphorothioate linkage.

human EGFR mRNA = test: Down-regulation of EGFR mRNA in transfected 15PC3 cells, real-time PCR
Method: as §1, §2, §3, §4, §5, §6, §7, §8, §9

human HER3 mRNA = test: Down-regulation of HER3 mRNA in transfected 15PC3 cells, real-time PCR
Method: as §1, §2, §3, §4, §5, §6, §7, §8, §9

ASTSASgScStScScSaSgSaScSaSTSCSA (antisense lA*lT*lA*dG*dC*dT*dC*dC*dA*dG*dA*dC*dA*lT*l[5mC]*lA) [SEQ ID NO: 173, β-D-oxy-LNA/DNA phosphorothioate gapmer antisense oligonucleotide targeting HER3]
HER2: percentage down-regulation of mRNA relative to mock transfected cells (human HER2 mRNA): 39.2% | EGFR: percentage down-regulation of mRNA relative to mock transfected cells (human EGFR mRNA): 96.4%

ASTSCScSaSaScSaScStStSgSaSCSCSA (antisense lA*lT*l[5mC]*dC*dA*dA*dC*dA*dC*dT*dT*dG*dA*l[5mC]*l[5mC]*lA) [SEQ ID NO: 176, β-D-oxy-LNA/DNA phosphorothioate gapmer antisense oligonucleotide targeting HER3]
HER3: percentage down-regulation of mRNA relative to mock transfected cells (human HER3 mRNA): 61.6% | HER2: percentage down-regulation of mRNA relative to mock transfected cells (human HER2 mRNA): 74.8% | EGFR: percentage down-regulation of mRNA relative to mock transfected cells (human EGFR mRNA): 79.4%

CSASASgSgScStScSaScSaScSaSTSCST (antisense l[5mC]*lA*lA*dG*dG*dC*dT*dC*dA*dC*dA*dC*dA*lT*l[5mC]*lT) [SEQ ID NO: 182, β-D-oxy-LNA/DNA phosphorothioate gapmer antisense oligonucleotide targeting HER3]
HER3: percentage down-regulation of mRNA relative to mock transfected cells (human HER3 mRNA): 74.6%

CSASAStScSaStScScSaSaScSaSCSTST (antisense l[5mC]*lA*lA*dT*dC*dA*dT*dC*dC*dA*dA*dC*dA*l[5mC]*lT*lT) [SEQ ID NO: 177, β-D-oxy-LNA/DNA phosphorothioate gapmer antisense oligonucleotide targeting HER3]
HER3: percentage down-regulation of mRNA relative to mock transfected cells (human HER3 mRNA): 51.1% | HER2: percentage down-regulation of mRNA relative to mock transfected cells (human HER2 mRNA): 63.4% | EGFR: percentage down-regulation of mRNA relative to mock transfected cells (human EGFR mRNA): 0%

CSASGSaScSaStScSaScStScStSGSGST (antisense l[5mC]*lA*lG*dA*dC*dA*dT*dC*dA*dC*dT*dC*dT*lG*lG*lT) [SEQ ID NO: 171, β-D-oxy-LNA/DNA phosphorothioate gapmer antisense oligonucleotide targeting HER3]
HER3: percentage down-regulation of mRNA relative to mock transfected cells (human HER3 mRNA): 70.6% | HER2: percentage down-regulation of mRNA relative to mock transfected cells (human HER2 mRNA): 2.8% | EGFR: percentage down-regulation of mRNA relative to mock transfected cells (human EGFR mRNA): 84.2%

CSASTSaScStScScStScSaStScSTSTSC (antisense l[5mC]*lA*lT*dA*dC*dT*dC*dC*dT*dC*dA*dT*dC*lT*lT*l[5mC]) [SEQ ID NO: 193, β-D-oxy-LNA/DNA phosphorothioate gapmer antisense oligonucleotide targeting HER3]
HER3: percentage down-regulation of mRNA relative to mock transfected cells (human HER3 mRNA): 64%

CSASTScScSaSaScSaScStStSgSASCSC (antisense l[5mC]*lA*lT*dC*dC*dA*dA*dC*dA*dC*dT*dT*dG*lA*l[5mC]*l[5mC]) [SEQ ID NO: 175, β-D-oxy-LNA/DNA phosphorothioate gapmer antisense oligonucleotide targeting HER3]
HER3: percentage down-regulation of mRNA relative to mock transfected cells (human HER3 mRNA): 65.5% | HER2: percentage down-regulation of mRNA relative to mock transfected cells (human HER2 mRNA): 76.9% | EGFR: percentage down-regulation of mRNA relative to mock transfected cells (human EGFR mRNA): 86.1%

CSASTSgStSaSgSaScSaStScSaSASTST (l[5mC]*lA*lT*dG*dT*dA*dG*dA*dC*dA*dT*dC*dA*lA*lT*lT; antisense) [SEQ ID NO: 179]
HER3: percentage down-regulation of mRNA relative to mock transfected cells (human HER3 mRNA): 70.5% | HER2: percentage down-regulation of mRNA relative to mock transfected cells (human HER2 mRNA): 75.6% | EGFR: percentage down-regulation of mRNA relative to mock transfected cells (human EGFR mRNA): 52.6%

CSASTStScSaSaSgStStScStStSCSAST (antisense l[5mC]*lA*lT*dT*dC*dA*dA*dG*dT*dT*dC*dT*dT*l[5mC]*lA*lT) [SEQ ID NO: 184, β-D-oxy-LNA/DNA phosphorothioate gapmer antisense oligonucleotide targeting HER3]
HER3: percentage down-regulation of mRNA relative to mock transfected cells (human HER3 mRNA): 81.1%

CSTSCScSaSgSaScSaStScSaScSTSCST (antisense l[5mC]*lT*l[5mC]*dC*dA*dG*dA*dC*dA*dT*dC*dA*dC*lT*l[5mC]*lT) [SEQ ID NO: 170, β-D-oxy-LNA/DNA phosphorothioate gapmer antisense oligonucleotide targeting HER3]
HER2: percentage down-regulation of mRNA relative to mock transfected cells (human HER2 mRNA): 65.8% | EGFR: percentage down-regulation of mRNA relative to mock transfected cells (human EGFR mRNA): 91.5%

GSCSCScSaSgScSaScStSaSaStSTSTSC (antisense lG*l[5mC]*l[5mC]*dC*dA*dG*dC*dA*dC*dT*dA*dA*dT*lT*lT*l[5mC]) [SEQ ID NO: 186, β-D-oxy-LNA/DNA phosphorothioate gapmer antisense oligonucleotide targeting HER3]
HER3: percentage down-regulation of mRNA relative to mock transfected cells (human HER3 mRNA): 79.9%

TSCSASaStScSaStScScSaSaScSASCST (antisense lT*l[5mC]*lA*dA*dT*dC*dA*dT*dC*dC*dA*dA*dC*lA*l[5mC]*lT) [SEQ ID NO: 178, β-D-oxy-LNA/DNA phosphorothioate gapmer antisense oligonucleotide targeting HER3]
HER3: percentage down-regulation of mRNA relative to mock transfected cells (human HER3 mRNA): 76.7% | HER2: percentage down-regulation of mRNA relative to mock transfected cells (human HER2 mRNA): 88.6% | EGFR: percentage down-regulation of mRNA relative to mock transfected cells (human EGFR mRNA): 0%

TSCSAScSaScScSaStSaSgScStSCSCSA (antisense lT*l[5mC]*lA*dC*dA*dC*dC*dA*dT*dA*dG*dC*dT*l[5mC]*l[5mC]*lA) [SEQ ID NO: 174, β-D-oxy-LNA/DNA phosphorothioate gapmer antisense oligonucleotide targeting HER3]
HER2: percentage down-regulation of mRNA relative to mock transfected cells (human HER2 mRNA): 94.8% | EGFR: percentage down-regulation of mRNA relative to mock transfected cells (human EGFR mRNA): 86.4%
